Laboratory results published in ChEMBL document CHEMBL3217600, “The discovery and profile of PF-0868087, a CNS-sparing histamine H3 receptor antagonist for the treatment of allergic rhinitis” (Medchemcomm, 2012).
Values belong to the compound of their own block, whether it stands above or below them.

How the values were obtained:
[1] = Distribution coefficient, log D of the compound at pH 7.4; assay type: physicochemical; details: octanol/water
[2] = Solubility of the compound; assay type: physicochemical
[3] = Apparent permeability from apical to basolateral side in dog RRCK cells; assay type: ADME, cell-based, Canis lupus familiaris, MDCKII-LE; details: MDCK
MDR1 (P-gp) = assay: Efflux ratio of permeability from basolateral to apical side over apical to basolateral side of MDR1 transfected dog MDCK cells; assay type: ADME, cell-based, Canis lupus familiaris
BCRP = assay: Efflux ratio of permeability from basolateral to apical side over apical to basolateral side of BCRP transfected dog RRCK cells; assay type: ADME, cell-based, Canis lupus familiaris, MDCKII-LE
Nucleic Acid = assay: Ratio of drug level in CSF to free drug level in plasma in iv dosed rat administered at high multiple of H3R Ki measured after 4 hrs infusion; assay type: ADME, organism-based; details: in vivo
[4] = Ratio of free drug level in brain to plasma in iv dosed rat measured after 6 hrs infusion; assay type: ADME, organism-based; details: read-out: K(p,uu,brain)
[5] = Ratio of free drug level in brain to plasma in rat at 8 mg/kg/day, po for 8 days; assay type: ADME, organism-based; design: route oral; details: read-out: K(p,uu,brain)
[6] = Therapeutic index in EEG PKPD rat relative to CNS penetrant compound Z; assay type: organism-based; details: in vivo, read-out: TI
[7] = Oral bioavailability in rat; assay type: ADME, organism-based; details: in vivo
Rattus norvegicus [8] = assay: Ex vivo receptor occupancy of histamine H3 receptor in iv dosed rat brain administered at 20 times free H3R Ki in plasma measured after 6 hrs infusion; assay type: functional
[9] = molecular target: Voltage-gated inwardly rectifying potassium channel KCNH2 (Homo sapiens, UniProt Q12809); assay: Binding affinity to human ERG
[10] = Total Cmax in rat at 1 mg/kg, iv administered as bolus dose; assay type: ADME, organism-based; design: dose 1 mg/kg, route intravenous; details: in vivo
[11] = Total Cmax in rat at 2 mg/kg, po; assay type: ADME, organism-based; design: dose 2 mg/kg, route oral; details: in vivo
[12] = Total Cmax in dog at 0.2 mg/kg, iv infusion; assay type: ADME, organism-based, Canis lupus familiaris; design: dose 0.2 mg/kg, route intravenous; details: in vivo
[13] = Total Cmax in dog at 0.2 mg/kg, po; assay type: ADME, organism-based, Canis lupus familiaris; design: dose 0.2 mg/kg, route oral; details: in vivo
Rattus norvegicus [14] = assay: Free Cmax in rat at 1 mg/kg, iv administered as bolus dose; assay type: ADME, organism-based; design: dose 1 mg/kg, route intravenous; details: in vivo
Rattus norvegicus [15] = assay: Free Cmax in rat at 2 mg/kg, po; assay type: ADME, organism-based; design: dose 2 mg/kg, route oral; details: in vivo
Canis familiaris [16] = assay: Free Cmax in dog at 0.2 mg/kg, iv infusion; assay type: ADME, organism-based, Canis lupus familiaris; design: dose 0.2 mg/kg, route intravenous; details: in vivo
Canis familiaris [17] = assay: Free Cmax in dog at 0.2 mg/kg, po; assay type: ADME, organism-based, Canis lupus familiaris; design: dose 0.2 mg/kg, route oral; details: in vivo
[18] = Tmax in rat at 2 mg/kg, po; assay type: ADME, organism-based; design: dose 2 mg/kg, route oral; details: in vivo
[19] = Tmax in dog at 0.2 mg/kg, po; assay type: ADME, organism-based, Canis lupus familiaris; design: dose 0.2 mg/kg, route oral; details: in vivo
[20] = AUC in rat at 1 mg/kg, iv administered as bolus dose; assay type: ADME, organism-based; design: dose 1 mg/kg, route intravenous; details: plasma
[21] = AUC in rat at 2 mg/kg, po; assay type: ADME, organism-based; design: dose 2 mg/kg, route oral; details: plasma
[22] = AUC in dog at 0.2 mg/kg, iv infusion; assay type: ADME, organism-based, Canis lupus familiaris; design: dose 0.2 mg/kg, route intravenous; details: plasma
[23] = AUC in dog at 0.2 mg/kg, po; assay type: ADME, organism-based, Canis lupus familiaris; design: dose 0.2 mg/kg, route oral; details: plasma
[24] = Clearance in rat at 1 mg/kg, iv administered as bolus dose; assay type: ADME, organism-based; design: dose 1 mg/kg, route intravenous; details: in vivo
[25] = Clearance in dog at 0.2 mg/kg, iv infusion; assay type: ADME, organism-based, Canis lupus familiaris; design: dose 0.2 mg/kg, route intravenous; details: in vivo
[26] = Volume of distribution at steady state in rat at 1 mg/kg, iv administered as bolus dose; assay type: ADME, organism-based; design: dose 1 mg/kg, route intravenous; details: in vivo, read-out: Vdss
[27] = Volume of distribution at steady state in dog at 0.2 mg/kg, iv infusion; assay type: ADME, organism-based, Canis lupus familiaris; design: dose 0.2 mg/kg, route intravenous; details: in vivo, read-out: Vdss
[28] = Effective half life in rat at 1 mg/kg, iv administered as bolus dose; assay type: ADME, organism-based; design: dose 1 mg/kg, route intravenous; details: in vivo, read-out: t1/2eff (converted)
[29] = Effective half life in dog at 0.2 mg/kg, iv infusion; assay type: ADME, organism-based, Canis lupus familiaris; design: dose 0.2 mg/kg, route intravenous; details: in vivo, read-out: t1/2eff (converted)
[30] = Drug absorption in rat at 2 mg/kg, po; assay type: ADME, organism-based; design: dose 2 mg/kg, route oral; details: in vivo, read-out: Drug absorption
[31] = Oral bioavailability in rat at 2 mg/kg; assay type: ADME, organism-based; details: in vivo
[32] = Oral bioavailability in dog at 0.2 mg/kg; assay type: ADME, organism-based, Canis lupus familiaris; details: in vivo
Salmonella typhimurium [33] = assay: Genotoxicity in Salmonella typhimurium TA98 expressing lux gene assessed as mutagenicity by BioLum Ames test; assay type: toxicity, organism-based; details: salmonella enterica subsp. enterica serovar typhimurium
Salmonella typhimurium [34] = assay: Genotoxicity in Salmonella typhimurium TA100 expressing lux gene assessed as mutagenicity by BioLum Ames test; assay type: toxicity, organism-based; details: salmonella enterica subsp. enterica serovar typhimurium
CHO [35] = assay: Genotoxicity in CHO cells by micronucleus test in presence of metabolic activation; assay type: toxicity, cell-based, Cricetulus griseus; details: chinese hamster
CHO [36] = assay: Genotoxicity in CHO cells by micronucleus test in absence of metabolic activation; assay type: toxicity, cell-based, Cricetulus griseus; details: chinese hamster
[37] = Induction of phospholipidosis in transformed human liver epithelial cells; assay type: cell-based; details: epithelial cell
[38] = Toxicity in non-regulatory rat assessed as tolerability administered for 7 days; assay type: organism-based; details: in vivo
Rattus norvegicus [39] = assay: Free drug level in non-regulatory rat administered for 7 days; assay type: ADME, organism-based; details: in vivo, 168 h
[40] = Dissociation constant, pKa of the compound; assay type: physicochemical
[41] = Ratio of free drug level in brain to plasma in dog at 1.5 mg/kg/day, po for 8 days; assay type: ADME, organism-based, Canis lupus familiaris; design: route oral; details: read-out: K(p,uu,brain)
Histamine H3 receptor [42] = molecular target: T1, Histamine H3 receptor (Homo sapiens, UniProt Q9Y5N1); assay: Displacement of [3H]-N-alpha-methylhistamine from human recombinant histamine H3 receptor expressed in HEK293 cell membrane; assay type: cell membranes
Histamine H3 receptor [43] = molecular target: T1, Histamine H3 receptor; assay: Displacement of [3H]-PF-05255650 from human recombinant histamine H3 receptor expressed in HEK293 cell membrane; assay type: cell membranes
Histamine H3 receptor [44] = molecular target: T2, Histamine H3 receptor (Rattus norvegicus, UniProt Q9QYN8); assay: Displacement of [3H]-N-alpha-methylhistamine from rat recombinant histamine H3 receptor expressed in HEK293 cell membrane; assay type: cell membranes
Histamine H3 receptor [45] = molecular target: T2, Histamine H3 receptor; assay: Displacement of [3H]-N-alpha-methylhistamine from histamine H3 receptor in rat brain; assay type: tissue-based
Histamine H3 receptor [46] = molecular target: T1, Histamine H3 receptor; assay: Inhibition of human recombinant histamine H3 receptor expressed in HEK293 cells assessed as inhibition of imetit-induced reduction in NKH477-stimulated cAMP accumulation by DiscoveRxTM assay; assay type: functional, cell-based
Histamine H3 receptor [47] = molecular target: T1, Histamine H3 receptor; assay: Inhibition of human recombinant histamine H3 receptor expressed in HEK293 cells by Glosensor functional assay; assay type: cell-based
[48] = molecular target: Histamine H3 receptor (Cavia porcellus) (UniProt Q9JI35); assay: Inhibition of histamine H3 receptor in electrically contracted guinea pig ileum assessed as reduction of R-alpha-methyl histamine mediated relaxation; assay type: tissue-based
[49] = Binding affinity to sigma receptor (unknown origin); design: species or system Homo sapiens
HEK293 = assay: Selectivity ratio of Ki for sigma receptor (unknown origin) to Ki for human recombinant histamine H3 receptor expressed in HEK-293 cells; assay type: cell-based
Histamine H1 receptor = Histamine H1 receptor (Homo sapiens, UniProt P35367); assay: Binding affinity to human histamine H1 receptor
Histamine H2 receptor = Histamine H2 receptor (Homo sapiens, UniProt P25021); assay: Binding affinity to human histamine H2 receptor
Histamine H4 receptor = Histamine H4 receptor (Homo sapiens, UniProt Q9H3N8); assay: Binding affinity to human histamine H4 receptor

T1 sequence (Q9Y5N1 whole entry): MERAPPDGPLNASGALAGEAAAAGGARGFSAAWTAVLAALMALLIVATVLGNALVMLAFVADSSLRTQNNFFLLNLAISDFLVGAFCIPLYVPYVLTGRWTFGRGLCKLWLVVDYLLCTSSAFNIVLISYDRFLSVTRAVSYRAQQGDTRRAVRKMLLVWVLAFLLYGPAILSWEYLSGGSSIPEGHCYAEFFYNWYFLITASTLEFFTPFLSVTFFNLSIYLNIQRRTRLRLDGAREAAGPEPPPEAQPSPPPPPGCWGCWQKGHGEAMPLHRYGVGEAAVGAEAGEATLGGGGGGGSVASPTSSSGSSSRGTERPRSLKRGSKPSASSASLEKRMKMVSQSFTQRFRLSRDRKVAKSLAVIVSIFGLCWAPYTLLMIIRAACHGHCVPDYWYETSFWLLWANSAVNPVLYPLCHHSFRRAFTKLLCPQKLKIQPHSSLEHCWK
T2 sequence (Q9QYN8 whole entry): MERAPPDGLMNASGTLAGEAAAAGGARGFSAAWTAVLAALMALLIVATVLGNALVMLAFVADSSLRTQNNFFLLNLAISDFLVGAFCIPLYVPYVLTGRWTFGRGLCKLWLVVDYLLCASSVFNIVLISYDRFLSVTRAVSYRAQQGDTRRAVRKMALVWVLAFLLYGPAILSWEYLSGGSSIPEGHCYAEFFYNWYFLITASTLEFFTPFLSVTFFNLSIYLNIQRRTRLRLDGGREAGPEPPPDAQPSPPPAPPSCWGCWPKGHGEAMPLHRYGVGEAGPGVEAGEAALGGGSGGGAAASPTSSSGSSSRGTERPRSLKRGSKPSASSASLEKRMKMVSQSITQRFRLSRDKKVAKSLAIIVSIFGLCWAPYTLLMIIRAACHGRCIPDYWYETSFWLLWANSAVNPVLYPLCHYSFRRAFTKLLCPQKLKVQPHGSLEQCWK
Chain of Voltage-gated inwardly rectifying potassium channel KCNH2 (Q12809 whole entry): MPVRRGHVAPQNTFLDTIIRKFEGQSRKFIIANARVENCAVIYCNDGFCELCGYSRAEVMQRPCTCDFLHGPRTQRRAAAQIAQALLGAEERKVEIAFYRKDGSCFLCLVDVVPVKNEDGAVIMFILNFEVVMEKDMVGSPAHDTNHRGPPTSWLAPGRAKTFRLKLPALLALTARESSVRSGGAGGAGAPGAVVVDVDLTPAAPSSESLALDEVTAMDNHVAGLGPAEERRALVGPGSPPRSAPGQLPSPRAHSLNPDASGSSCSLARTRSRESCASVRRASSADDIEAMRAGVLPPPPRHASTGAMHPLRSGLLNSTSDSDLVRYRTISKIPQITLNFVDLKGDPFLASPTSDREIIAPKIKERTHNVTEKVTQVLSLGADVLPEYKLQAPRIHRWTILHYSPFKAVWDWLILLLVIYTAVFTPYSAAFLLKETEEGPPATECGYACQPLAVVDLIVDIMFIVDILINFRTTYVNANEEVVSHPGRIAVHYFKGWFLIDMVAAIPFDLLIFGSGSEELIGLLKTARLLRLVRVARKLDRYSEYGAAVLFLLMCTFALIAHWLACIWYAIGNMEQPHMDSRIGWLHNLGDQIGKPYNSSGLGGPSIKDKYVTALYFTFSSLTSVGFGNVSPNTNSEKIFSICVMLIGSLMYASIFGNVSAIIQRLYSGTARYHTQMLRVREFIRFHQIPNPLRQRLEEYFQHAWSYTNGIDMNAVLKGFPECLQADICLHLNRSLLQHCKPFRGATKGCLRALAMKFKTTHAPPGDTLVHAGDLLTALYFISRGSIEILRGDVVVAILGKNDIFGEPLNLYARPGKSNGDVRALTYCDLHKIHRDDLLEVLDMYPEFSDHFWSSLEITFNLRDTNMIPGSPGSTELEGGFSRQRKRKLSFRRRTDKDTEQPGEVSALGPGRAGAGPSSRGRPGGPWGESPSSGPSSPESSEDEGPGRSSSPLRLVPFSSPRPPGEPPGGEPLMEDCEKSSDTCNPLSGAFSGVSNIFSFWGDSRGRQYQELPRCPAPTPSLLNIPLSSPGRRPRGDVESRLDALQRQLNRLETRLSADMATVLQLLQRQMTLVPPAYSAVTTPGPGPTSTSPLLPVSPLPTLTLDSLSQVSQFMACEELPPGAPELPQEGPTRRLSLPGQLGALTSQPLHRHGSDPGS
Chain of Histamine H3 receptor (Cavia porcellus) (Q9JI35 whole entry): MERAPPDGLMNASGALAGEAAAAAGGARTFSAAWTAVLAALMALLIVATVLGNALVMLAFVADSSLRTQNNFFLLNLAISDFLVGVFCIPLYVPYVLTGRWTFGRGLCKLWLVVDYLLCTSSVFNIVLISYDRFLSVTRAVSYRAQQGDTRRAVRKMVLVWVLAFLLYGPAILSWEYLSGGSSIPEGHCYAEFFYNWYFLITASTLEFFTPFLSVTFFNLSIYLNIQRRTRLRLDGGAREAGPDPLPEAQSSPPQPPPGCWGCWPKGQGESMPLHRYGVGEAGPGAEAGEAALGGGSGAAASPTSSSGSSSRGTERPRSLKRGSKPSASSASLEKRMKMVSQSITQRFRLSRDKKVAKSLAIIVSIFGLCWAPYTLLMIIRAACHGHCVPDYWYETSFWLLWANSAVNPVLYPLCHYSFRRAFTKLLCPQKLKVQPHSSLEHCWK
Chain of Histamine H2 receptor (P25021 whole entry): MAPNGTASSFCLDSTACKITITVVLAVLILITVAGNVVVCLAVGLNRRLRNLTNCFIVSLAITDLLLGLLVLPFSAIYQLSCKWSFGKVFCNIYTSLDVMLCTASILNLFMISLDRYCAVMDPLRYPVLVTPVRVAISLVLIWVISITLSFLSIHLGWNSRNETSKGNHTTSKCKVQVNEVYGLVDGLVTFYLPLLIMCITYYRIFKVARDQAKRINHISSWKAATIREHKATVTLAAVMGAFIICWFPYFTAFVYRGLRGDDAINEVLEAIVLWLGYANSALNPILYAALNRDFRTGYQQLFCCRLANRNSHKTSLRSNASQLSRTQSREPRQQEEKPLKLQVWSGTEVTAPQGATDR
Chain of Histamine H1 receptor (P35367 whole entry): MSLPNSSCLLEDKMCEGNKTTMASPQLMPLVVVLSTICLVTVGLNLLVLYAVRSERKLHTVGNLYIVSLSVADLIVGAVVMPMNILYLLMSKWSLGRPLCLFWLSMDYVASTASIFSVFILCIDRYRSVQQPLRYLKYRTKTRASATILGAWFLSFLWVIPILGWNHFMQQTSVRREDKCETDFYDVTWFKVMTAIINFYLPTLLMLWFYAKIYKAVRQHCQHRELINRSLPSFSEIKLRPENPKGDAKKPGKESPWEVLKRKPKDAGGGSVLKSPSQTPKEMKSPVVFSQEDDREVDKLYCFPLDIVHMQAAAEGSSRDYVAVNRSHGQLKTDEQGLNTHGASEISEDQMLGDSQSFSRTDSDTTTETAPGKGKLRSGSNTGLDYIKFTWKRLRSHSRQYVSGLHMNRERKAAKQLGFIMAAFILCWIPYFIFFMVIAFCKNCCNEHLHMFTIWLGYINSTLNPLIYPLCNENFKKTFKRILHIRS

logD [1]: 1.2 | solubility [2]: > 1000 µg/mL | Papp A→B [3]: 11 ×10⁻⁶ cm/s | efflux ratio (MDR1 (P-gp)): 4.8 | efflux ratio (BCRP): 3.7 | Ratio (Nucleic Acid): 0.05 | Kp uu at 6 h [4]: 0.1 | Kp uu at 192 h [5]: 0.07 | bioavailability [7]: 54%
Structure (SMILES): CC(C)N1CCC(Oc2ccc3c(n2)CCN(c2ccc(C(N)=O)cn2)C3)CC1
selectivity ratio [6]: 40 | Occ (Rattus norvegicus [8]): 18%

Cmax [10]: 477 ng/mL | Cmax [11]: 89 ng/mL | Cmax [12]: 129 ng/mL | Cmax [13]: 142 ng/mL | fCmax (Rattus norvegicus [14]): 856 nM | fCmax (Rattus norvegicus [15]): 158 nM | fCmax (Canis familiaris [16]): 320 nM | fCmax (Canis familiaris [17]): 352 nM | Tmax [18]: 45 min | Tmax [19]: 54 min | AUC [20]: 776 ng·h/mL | AUC [21]: 649 ng·h/mL | AUC [22]: 548 ng·h/mL | AUC [23]: 727 ng·h/mL | clearance [24]: 27 mL/min/kg | clearance [25]: 6.1 mL/min/kg | Vd [26]: 4.1 L/kg | Vd [27]: 2.3 L/kg | half-life [28]: 114 min | half-life [29]: 270 min | Fa [30]: 57% | bioavailability [31]: 42% | bioavailability [32]: 133% | Drug uptake(free) (Rattus norvegicus [39]): 14.051 µM | pKa [40]: 9.78 | logD [1]: 0 | solubility [2]: > 1000 µg/mL | Papp A→B [3]: 2 ×10⁻⁶ cm/s | efflux ratio (MDR1 (P-gp)): 3.3 | efflux ratio (BCRP): 5.6 | Ratio (Nucleic Acid): 0.06 | Kp uu at 6 h [4]: 0.1 | Kp uu at 192 h [5]: 0.07 | Kp uu at 192 h [41]: 0.1 | bioavailability [7]: 42% | Ki (Histamine H3 receptor [42]): 9.6 nM | Ki (Histamine H3 receptor [43]): 1.36 nM | Ki (Histamine H3 receptor [44]): 90.6 nM | Ki (Histamine H3 receptor [45]): 145 nM | Emax (Histamine H3 receptor [46]): 195% | Ki (Histamine H3 receptor [46]): 0.832 nM | Kb (Histamine H3 receptor [47]): 0.42 nM | A2 [48]: 0.96 nM | Ki [49]: 3.9 µM | Ki (Histamine H1 receptor): > 4 µM | Ki (Histamine H2 receptor): > 4 µM | Ki (Histamine H4 receptor): > 4 µM
Structure (SMILES): CC(C)N1CCC(Oc2ccc(C3(C(N)=O)CCOCC3)cc2)CC1
Ki [9]: > 40 µM | Activity (Salmonella typhimurium [33]): Non-toxic | Activity (Salmonella typhimurium [34]): Non-toxic | Activity (CHO [35]): Non-toxic | Activity (CHO [36]): Non-toxic | NOAEL [37]: 150 µM | NOAEL at 168 h [38]: 80 mg/kg/day | selectivity ratio [6]: 16 | Ratio Ki (HEK293): > 400
